Assay results reported in patent US20060247156A1, “Use of neuropeptides for ligament, cartilage, and bone healing” (priority 2004, published 2006).
“Also recorded” adds a separate entry of the source.

Tests used:
[1] = system: ruptured MCL of a FNT rat; assay: Local neuropeptide delivery to ruptured MCL of femoral nerve transected (FNT) rats: mechanical testing, histomorphology; type: in vivo; conditions: for failure force / ultimate stress / mechanical strength of healing MCL (in words): two weeks of healing; for mechanical strength of healing MCL (in words): local delivery of SP or CGRP
Text: Surgical Procedure: Thirteen female Wistar rats (278 g to 315 g) were divided into two groups: femoral nerve transection (FNT) or sham control. All rats were anesthetized with isofluorane (isofluorane 0.5-3%). […] Skin covering the anterior inguinal region was shaved and prepared for surgery. A skin incision approximately 15 mm long was made and the fascia distal to the inguinal was incised. The femoral artery, vein, and nerve were exposed and the femoral nerve was isolated and transected (with removal of a 5 mm segment of the nerve) using 3-0 dexon suture. The fascia and skin were closed in two layers with 3-0 continuous dexon suture. Immediately following FNT, rats from each group (n=4 FNT; n=3 controls) underwent a complete surgical rupture of the MCL to one knee. The contra-lateral knee underwent sham surgery. Two weeks post-knee surgery, rats were sacrificed using an overdose of pentobarbitone (150 mg/kg).
Local delivery of NPs and NP inhibitors is important to identify the specific roles of individual NPs on healing tissues. […] Briefly, NP infused mini-osmotic pumps were implanted subcutaneously into the back of rats. A small catheter running from the pump to an intramuscular space above the MCL was secured to the rat.
To test whether sensory NPs improve healing in femoral nerve transection (FNT) ruptured MCLs, three female Wistar rats (199 g to 203 g) were given SP locally to the MCL. Substance P (103 pg/μl) was infused into a miniosmotic pump and was delivered to a ruptured MCL of a FNT rat (see surgical procedure in Example 1 above). […] The results are presented graphically in FIG. 5
Animal Model and Surgery: Thirty-seven female Wistar rats (199-298 g) were divided into five groups. […] Rats that were designated to receive NPY, VIP, or a combination of NPY and VIP underwent bilateral surgical sympathectomy. Following surgical nerve transection, each rat also underwent bilateral MCL rupture. Neuropeptides were then delivered ruptured MCLs unilaterally. Neuropeptide infused mini-osmotic pumps (Alzet Corp.) were implanted subcutaneously into the back of each rat. A small catheter running from the pump was run to an intramuscular space above the MCL and was secured. To ensure that neuropeptides are delivered directly to the MCL, rhodamine labeled SP was delivered via a catheter to the MCL (n=2 rats).
To test whether autonomic NPs improve healing in SS ruptured MCLs, seven rats were given VIP, seven rats were given NPY, and seven rats were given a combination of VIP and NPY.
Mechanical Testing: Mechanical testing was performed as described in the preceding examples. Briefly, animal hind limbs from all groups (n=4 for all groups) were disarticulated at the hip joint and stored at −80° C. until testing. On the day of testing, MCLs including intact femoral and tibial bone sections were excised for ex vivo testing. Ligament thickness and width was measured optically, and MCL area was estimated with elliptical geometry. For strain measurements, optical markers were placed onto the ligament tissue near the insertion sites. A small preload of 0.1N was applied to the ligaments in order to obtain a uniform starting point. The ligaments were then preconditioned to 1% strain for 10 cycles. After preconditioning, ligaments were pulled to failure at a rate of ˜10% per second. Tissue displacement was obtained using video dimensional analysis using equations (1) and (2) supra. The mechanical properties that were examined in this study were maximum force, ultimate stress, strain at failure, elastic modulus, and area.

[2] = system: cartilage and subchondral bone defect in the trochlear groove; assay: Full-thickness cartilage defect healing with substance P delivery, histological grading; type: in vivo, rat
Text: Purpose-bred male Wistar rats, were used in this Example. Rats were acclimated to the animal care facility for seven days before use. All rats then undergo general anesthesia for surgical induction of cartilage injury. All rats underwent bilateral surgery. At the time of surgery, miniosmotic pumps were placed for NP treatment. All pumps remained in place throughout the experiment. At various time intervals after the surgery (2, 4 and 6 weeks), the rats were euthanized each joint was harvested for histological analysis.
Cartilage Injury: A […] long incision was made over the patellar tendon and the tendon and surrounding tissue was exposed. A mini-arthrotomy was made and the patella was subluxed (dislocated) to expose the femoral condyles and trochlear groove. A drill was used to create a full thickness (3 mm deep) hole, 0.635 mm in diameter, in the trochlear groove. The patella was then repositioned and the muscle fascia and subcutaneous tissue was closed with a continuous suture pattern, and the skin apposed with skin staples.
Neuropeptide delivery: Substance P (75 pg/100 μl) was infused subcutaneously (0.25 μl/hr) via the implantation of mini-osmotic pumps (Alza Corp. Palo Alto, Calif.). In all rats, neuropeptide infused pumps were implanted in a subcutaneous pocket after induction of general anesthesia. […]

[3] = Example 3: SP 103 pg/μl via mini-osmotic pump to ruptured MCL of FNT rat
[4] = Example 6: SP 75 pg/100 μl via mini-osmotic pump, FNT rats, bilateral MCL rupture

Substance P [SP]
failure force [1, 3]: 74.3 N | ultimate stress [1, 3]: 72.33 MPa | failure force [1, 4]: 74.3±7.9 N | ultimate stress [1, 4]: 72.33±22.1 MPa | histomorphology (H&E) of healing MCL ([1]; FNT rats, SP 75 pg/100 μl or CGRP 10 pg/100, two weeks): cells were more aligned | mechanical strength of healing MCL (in words) ([1]; FNT rats): greater than the strength of uninjured MCLs; also recorded: greater than that of normally innervated, intact MCLs | mechanical strength of healing MCL (in words) ([1]; FNT rats, listed as Substance P): completely reversed the functional deficits | average cartilage repair score (0 no damage to 24) ([2]; Substance P 75 pg/100 μl, 0.25 μl/hr via mini-osmotic pump, initial two week period, Sellers grading): 11.9 | healing of cartilage and subchondral bone (in words) ([2]; full-thickness cartilage defects after two weeks of healing): greatly improved healing of both the cartilage and subchondral bone
